Measurements as given in PubChem BioAssay (NCI).
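Following 48 hours of exposure in 96-well plates, responses at five concentrations were used to interpolate endpoints linearly. GI50 marks 50% less growth. TGI marks complete inhibition of growth.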

How the values were obtained:
Assay in all cases: growth of human tumour cells (NCI), 48 h
[1] = test system: KM12 colon
[2] = test system: T-47D breast
[3] = test system: DU-145 prostate
[4] = test system: SW-620 colon
[5] = test system: SNB-75 CNS
[6] = test system: IGROV1 ovarian
[7] = test system: NCI-H522 lung
[8] = test system: CAKI-1 renal
[9] = test system: UO-31 renal
[10] = test system: SF-268 CNS
[11] = test system: A549 NSCLC
[12] = test system: PC-3 prostate
[13] = test system: K-562 leukemia
[14] = test system: RXF 393 renal
[15] = test system: HOP-62 NSCLC
[16] = test system: 786-0 renal
[17] = test system: SF-539 CNS
[18] = test system: UACC-257 melanoma
[19] = test system: MDA-MB-231 breast
[20] = test system: SK-MEL-5 melanoma
[21] = test system: NCI-H226 lung
[22] = test system: OVCAR-5 ovarian
[23] = test system: MCF7 breast
[24] = test system: U251 CNS
[25] = test system: HCT-116 colon
[26] = test system: LOX IMVI melanoma
[27] = test system: SK-MEL-28 melanoma
[28] = test system: SK-OV-3 ovarian
[29] = test system: SN12C renal
[30] = test system: UACC-62 melanoma
[31] = test system: MDA-MB-435
[32] = test system: HL-60(TB) leukemia
[33] = test system: NCI/ADR-RES ovarian
[34] = test system: OVCAR-3 ovarian
[35] = test system: M14 melanoma
[36] = test system: HOP-92 NSCLC
[37] = test system: OVCAR-8 ovarian
[38] = test system: SNB-19 CNS
[39] = test system: BT-549 breast
[40] = test system: NCI-H23 lung
[41] = test system: OVCAR-4 ovarian
[42] = test system: NCI-H460 lung
[43] = test system: MOLT-4 leukemia
[44] = test system: SR leukemia
[45] = test system: COLO 205 colon
[46] = test system: HS 578T breast
[47] = test system: EKVX NSCLC
[48] = test system: SK-MEL-2 melanoma
[49] = test system: HCC-2998 colon
[50] = test system: HCT-15 colon
[51] = test system: RPMI-8226 leukemia
[52] = test system: SF-295 CNS
[53] = test system: A498 renal
[54] = test system: TK-10 renal
[55] = test system: HT29 colon
[56] = test system: ACHN renal
[57] = test system: CCRF-CEM leukemia
[58] = test system: MALME-3M melanoma

Q: What does the source list for `COC(=O)c1cccc(NC(=O)c2ccc(NC3=C(Cl)C(=O)N(Cc4ccccc4)C3=O)cc2)c1`?
A: GI50 [1]: 19.7 µM; TGI [1]: 41.7 µM; GI50 [2]: 4.46 µM; TGI [2]: 63.3 µM; GI50 [3]: 7.9 µM; TGI [3]: 25.2 µM; GI50 [4]: 22.3 µM; TGI [4]: 86.5 µM; GI50 [5]: 18.3 µM; TGI [5]: 62.6 µM; GI50 [6]: 0.176 µM; TGI [6]: 3.34 µM; GI50 [7]: 7.52 µM; TGI [7]: 32.8 µM; GI50 [8]: 1.72 µM; TGI [8]: 3.14 µM; GI50 [9]: 1.7 µM; TGI [9]: 3.31 µM; GI50 [10]: 23 µM; TGI [10]: 54.9 µM; GI50 [11]: 17.5 µM; TGI [11]: 48.7 µM; GI50 [12]: 15.1 µM; TGI [12]: 28.3 µM; GI50 [13]: 21.3 µM; TGI [13]: 52.7 µM; GI50 [14]: 13.9 µM; TGI [14]: 60.2 µM; GI50 [15]: 15.1 µM; TGI [15]: 35.4 µM; GI50 [16]: 10.5 µM; TGI [16]: 25.2 µM; GI50 [17]: 14.7 µM; TGI [17]: 29.5 µM; GI50 [18]: 15.4 µM; TGI [18]: 50.2 µM; GI50 [19]: 10.7 µM; TGI [19]: 32.1 µM; GI50 [20]: 16.5 µM; TGI [20]: 34 µM; GI50 [21]: 7.25 µM; TGI [21]: 35.2 µM; GI50 [22]: 3.63 µM; TGI [22]: 29.4 µM; GI50 [23]: 22.3 µM; TGI [23]: 49.7 µM; GI50 [24]: 12.7 µM; TGI [24]: 28.3 µM; GI50 [25]: 3.49 µM; TGI [25]: 14.9 µM; GI50 [26]: 1.76 µM; TGI [26]: 16.2 µM; GI50 [27]: 15.2 µM; TGI [27]: 52 µM; GI50 [28]: 84 µM; TGI [28]: > 100 µM; GI50 [29]: 4.69 µM; TGI [29]: 23.6 µM; GI50 [30]: 11.7 µM; TGI [30]: 25.4 µM; GI50 [31]: 14.3 µM; TGI [31]: 34.2 µM; GI50 [32]: 16.8 µM; TGI [32]: 38.8 µM; GI50 [33]: 15.9 µM; TGI [33]: 37.6 µM; GI50 [34]: 6.45 µM; TGI [34]: 25.9 µM; GI50 [35]: 9.75 µM; TGI [35]: 23 µM; GI50 [36]: 11 µM; TGI [36]: 23.4 µM; GI50 [37]: 11.4 µM; TGI [37]: 32.1 µM; GI50 [38]: 28.5 µM; TGI [38]: > 100 µM; GI50 [39]: 15.3 µM; TGI [39]: 31.9 µM; GI50 [40]: 8.57 µM; TGI [40]: 22.4 µM; GI50 [41]: 16.1 µM; TGI [41]: 56.1 µM; GI50 [42]: 30.2 µM; TGI [42]: 84.6 µM; GI50 [43]: 12.5 µM; TGI [43]: 56.5 µM; GI50 [44]: 1.87 µM; TGI [44]: 7.56 µM; GI50 [45]: 21.4 µM; TGI [45]: > 100 µM; GI50 [46]: 22 µM; TGI [46]: 69.4 µM; GI50 [47]: 23.6 µM; TGI [47]: 63.6 µM; GI50 [48]: 14.5 µM; TGI [48]: 44.2 µM; GI50 [49]: 2.04 µM; TGI [49]: 3.77 µM; GI50 [50]: 2.29 µM; TGI [50]: 17.5 µM; GI50 [51]: 10.7 µM; TGI [51]: 23.9 µM; GI50 [52]: 17.6 µM; TGI [52]: 57.8 µM; GI50 [53]: 26.3 µM; TGI [53]: 73 µM; GI50 [54]: 23.4 µM; TGI [54]: 63.4 µM; GI50 [55]: 21.1 µM; TGI [55]: > 100 µM

Q: How did the TGI [1] turn out when `Cc1[nH]nc(C(=O)N/N=C/c2ccccc2Cl)c1N=NN(C)C` was run?
A: The TGI was greater than 100 µM.

Q: And the TGI [2]?
A: Its TGI is greater than 100 µM.

Q: And the TGI [3]?
A: The TGI was greater than 23.4 µM.

Q: What about the TGI [4] of the same compound?
A: The TGI was greater than 100 µM.

Q: And the TGI [5]?
A: The TGI was greater than 100 µM.

Q: What about the TGI [6] of the same compound?
A: Its TGI is greater than 100 µM.

Q: What about the TGI [56] of the same compound?
A: The TGI was greater than 100 µM.

Q: What about the TGI [7] of the same compound?
A: Its TGI is greater than 100 µM.

Q: What about the TGI [8] of the same compound?
A: Its TGI is greater than 100 µM.

Q: And the TGI [9]?
A: Its TGI is greater than 100 µM.

Q: And the TGI [10]?
A: Its TGI is greater than 100 µM.

Q: And the TGI [11]?
A: The TGI was greater than 100 µM.

Q: And the TGI [12]?
A: The TGI was greater than 100 µM.

Q: And the TGI [13]?
A: Its TGI is greater than 100 µM.

Q: What about the TGI [14] of the same compound?
A: Its TGI is greater than 100 µM.

Q: What about the TGI [16] of the same compound?
A: Its TGI is greater than 100 µM.

Q: What about the TGI [17] of the same compound?
A: The TGI was greater than 29.9 µM.

Q: And the TGI [18]?
A: The TGI was greater than 100 µM.

Q: What about the TGI [19] of the same compound?
A: The TGI was greater than 100 µM.

Q: And the TGI [20]?
A: The TGI was greater than 100 µM.

Q: What about the TGI [21] of the same compound?
A: The TGI was greater than 100 µM.

Q: And the TGI [22]?
A: Its TGI is greater than 100 µM.

Q: And the TGI [23]?
A: Its TGI is greater than 100 µM.

Q: What about the TGI [24] of the same compound?
A: Its TGI is greater than 100 µM.

Q: What about the TGI [25] of the same compound?
A: The TGI was greater than 100 µM.

Q: What about the TGI [26] of the same compound?
A: Its TGI is greater than 100 µM.

Q: And the TGI [27]?
A: The TGI was greater than 100 µM.

Q: And the TGI [28]?
A: Its TGI is greater than 100 µM.

Q: And the TGI [29]?
A: The TGI was greater than 100 µM.

Q: And the TGI [57]?
A: Its TGI is greater than 100 µM.

Q: And the TGI [30]?
A: The TGI was greater than 100 µM.

Q: And the TGI [31]?
A: Its TGI is greater than 100 µM.

Q: What about the TGI [32] of the same compound?
A: Its TGI is greater than 100 µM.

Q: And the TGI [33]?
A: The TGI was greater than 27.7 µM.

Q: And the TGI [34]?
A: Its TGI is greater than 100 µM.

Q: And the TGI [35]?
A: The TGI was greater than 100 µM.

Q: What about the TGI [36] of the same compound?
A: The TGI was greater than 100 µM.

Q: And the TGI [37]?
A: Its TGI is greater than 100 µM.

Q: What about the TGI [58] of the same compound?
A: Its TGI is greater than 100 µM.

Q: What about the TGI [38] of the same compound?
A: The TGI was greater than 100 µM.

Q: What about the TGI [39] of the same compound?
A: The TGI was 12.8 µM.

Q: And the TGI [40]?
A: The TGI was greater than 100 µM.

Q: And the TGI [41]?
A: The TGI was greater than 100 µM.

Q: What about the TGI [42] of the same compound?
A: Its TGI is greater than 100 µM.

Q: And the TGI [43]?
A: Its TGI is greater than 100 µM.

Q: What about the TGI [44] of the same compound?
A: The TGI was greater than 100 µM.

Q: What about the TGI [45] of the same compound?
A: Its TGI is greater than 100 µM.

Q: What about the TGI [46] of the same compound?
A: Its TGI is greater than 61.9 µM.

Q: What about the TGI [47] of the same compound?
A: The TGI was greater than 100 µM.

Q: What about the TGI [48] of the same compound?
A: Its TGI is greater than 100 µM.

Q: And the TGI [49]?
A: Its TGI is greater than 100 µM.

Q: What about the TGI [50] of the same compound?
A: Its TGI is greater than 100 µM.

Q: What about the TGI [51] of the same compound?
A: The TGI was greater than 100 µM.

Q: And the TGI [52]?
A: Its TGI is greater than 100 µM.

Q: What about the TGI [53] of the same compound?
A: Its TGI is greater than 100 µM.

Q: What about the TGI [54] of the same compound?
A: Its TGI is greater than 100 µM.

Q: And the TGI [55]?
A: The TGI was greater than 100 µM.
